From patent US20220047773A1, “SELF-ELIMINATING COATINGS” (Interface Biologics, Inc., priority 2007, published 2022) come the findings set out here.

The nature of the data set: Partitioning in 1-octanol/PBS system. In kind it is physicochemical. As for the experimental part:
The partitioning of Compounds synthesized in Examples 1-13 was measured in a 1-octanol/PBS system. The partitioning correlates with the lipophilicity of the Compounds, and is used to predict the adsorption and distribution of Compounds under investigation. 1-octanol and PBS were thoroughly mixed to provide PBS-saturated 1-octanol in the top phase and 1-octanol-saturated PBS in the bottom phase. Solutions of Compounds 1, 2, 3, 6, 7, 8, 9, 10, 11, 12, 16, PTX, and SIBS (0.05 mL) were added to each vial of 1-octanol/PBS. The vials were rocked for 4 hours, ensuring good contact between the phases. An aliquot of the organic phase from each sample was then analyzed by GPC (THF mobile phase, RI), which had been calibrated using known concentrations of each compound. The area under the RI peak was used to estimate the concentration of each compound in the organic phase. The mass of each Compound was then used to calculate the weight percentage in organic phase by the following formula: (mass of Compound in 1-octanol phase/total mass)×100%. The partition coefficient was calculated according to the following formula: log([Compound in 1-octanol]/[Compound in PBS]). […]

As a reminder, the logD is the decadic logarithm of the distribution of all forms, ionised or not, between an organic phase and buffer at a given pH. High values mean higher lipophilicity, low ones lower lipophilicity.

As for `CC(=O)O[C@H]1C(=O)[C@@]2(C)[C@H]([C@H](OC(=O)c3ccccc3)[C@]3(O)C[C@H](OC(=O)[C@H](O)[C@@H](NC(=O)c4ccccc4)c4ccccc4)C(C)=C1C3(C)C)[C@]1(OC(C)=O)CO[C@@H]1C[C@@H]2O` [PTX, paclitaxel, reference compound], the log distribution coefficient (logD) at 4 h stood at 1. In addition, the “wt % in 1-octanol” value (1-octanol/PBS, rocked 4 hours, GPC of organic phase) amounted to 94%.
